Test results taken from patent US10351549B2, “Amide derivatives having multimodal activity against pain” (priority 2015, dated 2019).

biological target: human σ1 receptor and human μ-opioid receptor; assay: Human σ1 receptor and human μ-opioid receptor radioligand assays (μ and σ1 dual binding); parameters: key to μ and σ1 dual binding: +: Both Ki-μ and Ki-σ1>=500 nM; ++: One Ki<500 nM while the other Ki is >=500 nM; +++: Both Ki-μ and Ki-σ1<500 nM; ++++: Both Ki-μ and K1-σ1<100 nM; settings: joint class for Ki at σ1 ([3H](+)-pentazocine, transfected HEK-293 membranes) and Ki at μ-opioid ([3H]-DAMGO, transfected CHO-K1 membranes)

Q: `CCOCCN(C)C1CCN(CCN(C(=O)CC)c2cccc(C(F)(F)F)n2)C1` (centres unmarked) [Example 16] was tested. Which Ki did it give?
A: ≥ 500 nM

Q: How did the “μ and σ1 dual binding” value turn out when `CCC(=O)N(CCN1CCC(N(C)Cc2ccccc2)C1)c1cccc(C(F)(F)F)n1` (centres unmarked) [Example 6] was run?
A: ++

Q: With `CCC(=O)N(CCN1CC[C@H](N(C)Cc2ccccc2)C1)c1ccccc1` [Example 3, (S)-N-(2-(3-(benzyl(methyl)amino)pyrrolidin-1-yl)ethyl)-N-phenylpropionamide] as the compound, how does the “μ and σ1 dual binding” value read?
A: ++

Q: How did the “μ and σ1 dual binding” value turn out when `CCC(=O)N(CCN1CCC(N(C)Cc2ccccc2)C1)c1ncccc1F` (centres unmarked) [Example 1, N-(2-(3-(Benzyl(methyl)amino)pyrrolidin-1-yl)ethyl)-N-(3-fluoropyridin-2-yl)propionamide] was run?
A: ++

Q: With `CCC(=O)N(CCN1CCC(N(C)CC(C)C)C1)c1cccc(C(F)(F)F)n1` (centres unmarked) [Example 12, N-(2-(3-(isobutyl(methyl)amino)pyrrolidin-1-yl)ethyl)-N-(6-(trifluoromethyl)pyridin-2-yl)propionamide] as the compound, how does the Ki read?
A: ≥ 500 nM

Q: `CCC(=O)N(CCN1CCC(N(C)Cc2ccccc2)C1)c1cccc(C(F)(F)F)n1` (centres unmarked) [Example 5, N-(2-(3-(benzyl(methyl)amino)pyrrolidin-1-yl)ethyl)-N-(6-(trifluoromethyl)pyridin-2-yl)propionamide] was tested. Which Ki did it give?
A: ≥ 500 nM

Q: Which “μ and σ1 dual binding” value does the source give for `CCC(=O)N(CCN1CC(N(C)Cc2ccccc2)C1)c1cccc(C(F)(F)F)n1` [Example 9, N-(2-(3-(benzyl(methyl)amino)azetidin-1-yl)ethyl)-N-(6-(trifluoromethyl)pyridin-2-yl)propionamide] here?
A: ++

Q: Which “μ and σ1 dual binding” value does the source give for `CCC(=O)N(CCN1CC2CN(CC(C)C)CC2C1)c1cccc(C(F)(F)F)n1` (centres unmarked) [Example 18, N-(2-(5-isobutylhexahydropyrrolo[3,4-c]pyrrol-2(1H)-yl)ethyl)-N-(6-(trifluoromethyl)pyridin-2-yl)propionamide] here?
A: ++

Q: Which Ki does the source give for `CCC(=O)N(CCN1CC[C@@H](N(C)Cc2ccccc2)C1)c1ccccc1` [Example 4, (R)-N-(2-(3-(benzyl(methyl)amino)pyrrolidin-1-yl)ethyl)-N-phenylpropionamide] here?
A: < 500 nM

Q: How did the Ki turn out when `CCC(=O)N(CCN1CCC(N(C)Cc2ccccc2)C1)c1ccccc1` (centres unmarked) [Example 2, N-(2-(3-(benzyl(methyl)amino)pyrrolidin-1-yl)ethyl)-N-phenylpropionamide] was run?
A: < 500 nM

Q: For `CCOCCN(C)C1CCN(CCN(C(=O)CC)c2cccc(C(F)(F)F)n2)C1` (centres unmarked) [Example 17], which Ki is on record?
A: ≥ 500 nM
